Key:
[1] = test system: right ventricular muscle strips and right or left ventricular papillary muscles; assay: Ventricular muscle model of SMA and STA; set-up: species or system rat; settings: paced at 0.5 Hz, added to the superfusate in appropriate amounts
From the text: To further establish this model as a general test for arrhythmic and anti-arrhythmic agents, right ventricular muscle strips and right or left ventricular papillary muscles were isolated from anesthetized rats as cardiac muscle exemplars using methods known to persons skilled in the art. Additional exemplars could include ventricular or atrial conduction system cells and the SAN itself. These muscles were then superfused as described above and paced at 0.5 Hz.

[2] = test system: rat left atrial appendage; assay: 2-APB-induced spontaneous mechanical activity (SMA/SMEs) in isolated superfused rat left atria / left atrial appendage; settings: 3 Hz paced; data not shown
Procedure: Left atria were isolated from male Sprague-Dawley rats (325 to 400 g) under IP pentobarbital anesthesia (0.1 g/kg). Isolated left atria were superfused at 30° C. in Krebs-Henseleit (KH) buffer of the following mM composition: NaCl, 118; NaHCO3, 27; KCl, 4.8; MgSO4, 1.2; KH2PO4, 1.0; CaCl2, 1.8; and glucose, 11.1. Nearly isometric left atrial forces of contraction were measured as described.
Isolated superfused left atria were paced at 3 Hz. 2-APB was added to atrial superfusates from 0.015 or 0.15M DMSO stock solutions to achieve concentrations of 0, 2, 7.5, 15, or 22 μM (n=5 to 10 atria per concentration). Changes in atrial mechanical force were recorded during a subsequent 15 min superfusion.
Two groups of 5 to 6, 3 Hz paced atria were superfused in KH and exposed to 0 or 15 μM 2-APB for 10 min. The pacing stimulus was interrupted for 5 min and the number of spontaneous mechanical events (SMEs), defined as increases in mechanical force occurring in the absence of pacing, were measured as was the postrest potentiation response (PRP).
To determine whether diastolic interval affected the interaction between 2-APB and left atria, atrial pacing was decreased to 0.1 Hz, and 0, 7.5, or 22 μM 2-APB was added to the superfusate (n=6-8 per group). Superfusions continued for 15 min, and changes in atrial mechanical function were observed.
To establish whether SMA was reversible, atria (n=7) were paced at 0.1 Hz, exposed to 15 μM 2-APB for 10 min, and washed with KH. The effect of removing 2-APB on atrial mechanical function was recorded.
To test whether an anion transport inhibitor affected SMA, atria (n=7) were paced at 0.1 Hz in KH and exposed to 15 μM 2-APB. Following the appearance of SMA, they were titrated with 100 to 400 μM DIDS for 3 to 5 min at each concentration. Whether SMA occurred at the end of each titration period was recorded.
Left atria (n=10 per group) were paced at 0.1 Hz and treated with (i) 20 μM 2-APB for 10 min, (ii) with 30 nM isoproterenol for 5 min followed by 20 μM 2-APB for 10 min, and (iii) with 3 μM forskolin for 5 min followed by 20 μM 2-APB for 10 min.
The appendages then were titrated with increasing concentrations of 2-APB, and SMA was measured and recorded.
(§1) To determine the anti-arrhythmic activity of gossypol, isolated rat left atrial appendage and right ventricular muscle strips were used as model systems, as described above. Heart muscle was exposed to 20 μM 2-APB for 10 min to induce SMA, and rates of SMA were recorded as a percentage of initial SMA. The muscles then were titrated with up to 5 increasing concentrations of gossypol. Rates of SMA were recorded ˜10 min after the addition of concentration of the polyphenol.
To determine whether EGCG can prevent arrhythmia, rat left atrial appendages (n=9) were exposed to 20 μM 2-APB and rates of SMA were recorded. Groups of muscles (n=6 per) were pre-treated with 30 μM EGCG for 10 min following which they were exposed to 2-APB. Rates of SMA were recorded 10 min later.
as §1, with “whether EGCG is effective to reverse arrhythmia,” for “the anti-arrhythmic activity of gossypol,”, “Rat left atrial appendages were” for “Heart muscle was”, “left atrial appendages” for “muscles”, “the following polyphenols: EGCG, gossypol, resveratrol, and quercetin.” for “gossypol.”
To determine whether EGC can prevent arrhythmia, left atrial appendages (n=9) were exposed to 20 μM 2-APB and rates of SMA were recorded. Groups of appendages (n=6 per) were pre-treated with 30 μM EGC for 10 min following which they were exposed to 2-APB.

[3] = test system: rat left atrial appendage; assay: ATXII-induced triggered activity and transition to automaticity in left atrial appendage
From the text: There are two types of afterdepolarizations; early afterdepolarizations (EADs) that occur early during repolarization and delayed afterdepolarizations (DADs) that occur in fully repolarized, resting myocytes (FIG. 4). Both EADs and DADs are defined as “triggered” activities as they require a preceding normal action potential to occur (FIG. 3B). One model to elicit EADs is to expose heart muscle or myocytes to Anemonia sulcata Toxin II (ATX II). This 47 amino acid peptide specifically enhances late sodium current and prolongs the action potential duration (FIG. 3D; middle panel). This leads to calcium loading of heart muscle followed by EADs during phase 2 or phase 3 of the action potential (FIGS. 3D & 5). These EADs, if of sufficient magnitude, produce ectopic mechanical events (FIG. 3B; ‡).
In embodiments of the assay an agent to induce arrhythmia will be introduced in the muscle. The arrhythmic agent may be chemical or physical. If the agent is chemical, it can be any chemical agent known by those skilled in the art to induce arrhythmia. The chemical agent will be introduced at a concentration sufficient to induce arrhythmia. If a certain type of arrhythmia is the subject of the assay (for example, triggered activity, tachycardia or any other type of arrhythmia), then the agent should be present at a concentration sufficient to produce the certain type of arrhythmia. One acceptable agent is anemone toxin II (“ATX II,”), the toxin of Anemone sulcata. ATX II is a sodium channel regulator.
It was tested whether the altered voltage-independent calcium homeostasis which 2-APB provokes is sufficient to initiate frank automaticity from triggered activity.

Compound	ventricular SMA [1]	SMEs per min compared with 2-APB [2]	ATXII concentration provoking automatic activity [3]	effect on action potential ([3]; 30 nM ATXII, paced at 1 Hz)	ATXII concentration inducing triggered activity / aftercontractions ([3]; paced left atrial appendages)
c1ccc(B(OB(c2ccccc2)c2ccccc2)c2ccccc2)cc1 [diphenyl boronic anhydride]	ventricular SMA was observed	gave similar results	–	–	–
ATXII: 47 amino acid peptide that enhances late sodium current and prolongs action potential duration	–	–	> 50 nM	prolongs action potential duration	< 50 nM

Reference: patent US20110144125A1, “Anti-Arrhythmia Agents, Methods of Their Use, Methods of Their Identification and Kits Therefore” (THE UAB RESEARCH FOUNDATION, priority 2008, published 2011)
